Assay results reported in patent US11311568B2, “Therapeutic pharmaceutical composition for cancer including miRNA” (Purmx Therapeutics, Inc., priority 2017, dated 2022).

Assays:
[1] = test system: malignant pleural mesothelioma cells EHMES-10; test: Antitumor effect in vivo, subcutaneous transplantation of EHMES-10 cells; set-up: species or system SCID mouse; settings: SCID mice, EHMES-10 subcutaneous, 13 administrations
Procedure: Malignant pleural mesothelioma cells EHMES-10 cells were used.
1: The cells on the dish were washed twice with PBS (-).
2: The cells were detached with trypsin.
3: This was suspended in a medium, and cells were counted.
4: Centrifugation at a condition of 1000 rpm for 3 min was performed to pellet down.
5: The cells were resuspended in PBS (-) in order to obtain 2.0×10^7 cells/mL.
Six weeks-old C-B-17/Icr-scid/scid Jcl (SCID mouse) were used as mice. SCID mice were subcutaneously administered 100 μL of the prepared cell suspension, and the cells were allowed to settle.
Negative control which is the control sequence and miR-3140-3p which is the miRNA of the present invention were employed. A6K (from 3D Matrix) was employed as the nucleic acid delivery reagent. The administration of miRNA to mice was carried out with the following protocol.
1: 100 μM of the nucleic acid (miRNA) was diluted with 10% saline and sterilized water in order to obtain 71.4 μM.
2: 1% A6K solution was sonicated for 5 minutes before use.
3: The diluted nucleic acid and the 1% A6K solution were mixed at a proportion of 1:1 to give the administration nucleic acid.
4: SCID mice were subcutaneously administered (tumor site) 50 μL each of the administration nucleic acid.
1: From two days after transplantation, the nucleic acid was administered every one or two days. […]

[2] = test system: malignant pleural mesothelioma cell strain EHMES-10; test: Antitumor effect in vivo, intrathoracic orthotopic transplantation model mouse; set-up: species or system mice (C-B-17/Icr-scid/scid Jcl)
Procedure: The tumor suppression effect of miR-3140-3p in vivo was investigated with intrathoracic orthotopic transplantation model mouse.
Six weeks-old male mice (C-B-17/Icr-scid/scid Jcl) were used as mice. Malignant pleural mesothelioma cell strain EHMES-10 which expresses the luciferase gene was used as the tumor cell.
The experiment protocol is shown below.
1: Mice were intraperitoneally administered 0.1 mL per 10 g of body weight of a mixed anesthetic drug of medetomidine hydrochloride, midazolam, and butorphanol tartrate.
2: After anesthesia, mouse chest hair was shaved, and an incision was made in the epidermis with scissors.
3: In the mouse pleural cavity 100 μL of tumor cells (3×10^7 cells/mL) was transplanted with a 27 G syringe for insulin.
4: Three days after transplantation, imaging of tumor cells was performed with IVIS Spectrum CT In vivo Imaging System.
5: After imaging, grouping was performed with successfully transplanted mice.
6: Mice were intraperitoneally administered 0.1 mL per 10 g of body weight of a mixed anesthetic drug of medetomidine hydrochloride, midazolam, and butorphanol tartrate to anesthetize the mice.
7: After anesthesia, 100 μL of miRNA/A6K mixture was administered in the mouse pleural cavity.
8: Imaging was performed every week from the first imaging, and tumor expansion was observed.
9: The time and date of death of the mice was recorded, and mice survival rate was calculated.
The mixed anesthetic drug of medetomidine hydrochloride, midazolam, and butorphanol tartrate was prepared as in Table 4 below. The miRNA/A6K mixture was prepared as in Table 5. Moreover, the control group was administered the RNA shown in Table 6 instead of the miRNA of the present invention.
Note that in order to improve expression efficiency, miRNA was administered as a double-strand in combination with a complementary strand comprising partial mismatch.

For “miR-3140-3p: Mature-miRNA, AGCUUUUGGGAAUUCAGGUAGU (SEQ ID NO. 2) (listed as RNA, chemistry not given here; listed as Homo sapiens)”, the “tumor weight at endpoint compared to the control group” value ([1]; 33 days after transplantation, FIG. 16) was “a similar result”, the “expansion of the tumor (luciferin imaging) compared to the control group” value ([1]; miRNA with A6K at tumor site, imaging at 12, 19, 26, 33 days, FIGS. 14-15) was “expansion of the tumor was suppressed” and the “tumor reduction by imaging” value ([2]; one administration of miRNA/A6K in pleural cavity, 3.2 nmol (45 μg) per mouse, Day 10 to Day 24 after transplantation, FIG. 20) was “tumor reduction was seen”. The “tumor expansion (imaging results digitized)” value ([2]; one administration of miRNA/A6K in pleural cavity, FIG. 21) was “significantly suppressed tumor expansion”, the “survival rates of mice” value ([2]; one administration of miRNA/A6K in pleural cavity, FIG. 22) was “survival rates of mice had improved” and the “survival rates of mice” value ([2]; three administrations of miRNA/A6K in pleural cavity, FIG. 28) was “more improved”. For the same substance, the “suppression of malignant pleural mesothelioma (imaging, survival)” value ([2]; three administrations of miRNA/A6K in pleural cavity, FIGS. 26-28) was “significantly suppressed malignant pleural mesothelioma” and the “suppression of malignant pleural mesothelioma (imaging, survival)” value ([2]; two administrations of miRNA/A6K in pleural cavity, FIGS. 23-25) was “significantly suppressed malignant pleural mesothelioma”.
